Experimental data taken from ChEMBL document CHEMBL1201862, “PubChem BioAssay data set” (2004).
Counter-ions that a name gives are not always drawn. The source made the active and inactive calls.

Assays:
[1] = target: Glucose-6-phosphate 1-dehydrogenase (Homo sapiens, UniProt P11413); assay: inhibition of Homo sapiens G6PD, dose series – biochemical, fluorescence, selectivity assay for P. falciparum G6PD inhibitor project, dose response (AID 504792); type: functional
Coagulation factor XII = target: T1, Coagulation factor XII (Homo sapiens, UniProt P00748); type: functional;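 further: activated factor XIIa alpha cleaving a fluorogenic AMC peptide substrate; inhibitor potency from loss of enzyme activity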
T1 sequence (P00748 whole entry): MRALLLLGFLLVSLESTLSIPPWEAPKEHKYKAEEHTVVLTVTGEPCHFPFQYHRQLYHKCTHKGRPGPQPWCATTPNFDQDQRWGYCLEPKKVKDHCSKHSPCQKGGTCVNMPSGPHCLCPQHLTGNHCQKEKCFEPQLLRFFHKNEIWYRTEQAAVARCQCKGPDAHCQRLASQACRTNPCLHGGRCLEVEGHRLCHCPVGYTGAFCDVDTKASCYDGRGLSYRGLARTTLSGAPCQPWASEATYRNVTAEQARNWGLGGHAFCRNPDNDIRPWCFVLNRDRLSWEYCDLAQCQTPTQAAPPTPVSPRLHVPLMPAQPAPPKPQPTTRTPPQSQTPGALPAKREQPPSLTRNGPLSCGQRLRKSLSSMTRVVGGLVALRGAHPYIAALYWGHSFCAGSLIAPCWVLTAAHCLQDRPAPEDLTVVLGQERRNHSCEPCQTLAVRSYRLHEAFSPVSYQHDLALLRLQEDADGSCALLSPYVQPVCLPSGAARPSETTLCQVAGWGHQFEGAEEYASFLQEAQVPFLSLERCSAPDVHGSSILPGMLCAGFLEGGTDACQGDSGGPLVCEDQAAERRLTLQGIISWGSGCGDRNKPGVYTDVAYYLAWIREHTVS

[2] = target: T2, Sentrin-specific protease 1 (Homo sapiens, UniProt Q9P0U3); assay: SENP1 catalytic domain blockers, concentration series – biochemical, kinetic FRET, dose response (AID 651697); type: functional; conditions: read-out: IC50_Mean
T2 sequence (Q9P0U3 whole entry): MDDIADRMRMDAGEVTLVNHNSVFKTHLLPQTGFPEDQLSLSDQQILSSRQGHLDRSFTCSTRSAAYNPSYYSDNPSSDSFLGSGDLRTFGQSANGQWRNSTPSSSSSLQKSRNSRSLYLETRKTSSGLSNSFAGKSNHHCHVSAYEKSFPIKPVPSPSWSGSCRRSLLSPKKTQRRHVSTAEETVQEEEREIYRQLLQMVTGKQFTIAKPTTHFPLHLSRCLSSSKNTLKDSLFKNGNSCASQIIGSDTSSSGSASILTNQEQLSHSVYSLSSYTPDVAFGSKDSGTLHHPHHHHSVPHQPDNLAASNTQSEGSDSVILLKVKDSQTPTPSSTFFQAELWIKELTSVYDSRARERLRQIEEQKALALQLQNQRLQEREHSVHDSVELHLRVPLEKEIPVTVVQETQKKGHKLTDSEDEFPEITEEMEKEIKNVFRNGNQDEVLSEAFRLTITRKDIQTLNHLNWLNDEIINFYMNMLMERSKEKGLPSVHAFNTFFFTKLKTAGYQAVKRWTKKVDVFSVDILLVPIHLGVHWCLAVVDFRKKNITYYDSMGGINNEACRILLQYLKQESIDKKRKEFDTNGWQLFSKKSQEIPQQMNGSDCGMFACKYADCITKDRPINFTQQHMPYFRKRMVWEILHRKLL

[3] = target: T2, Sentrin-specific protease 1; assay: Dose response confirmation of small molecule inhibitors of the catalytic domain of the SUMO protease, SENP1 in a FRET assay.; type: functional; conditions: read-out: IC50_Mean
[4] = bead-based luminescence quenchers, dual-tagged ARNT – biochemical, AlphaScreen, cherry-pick, artefact control for ARNT-TACC3 interaction inhibitor project, dose response (AID 651705); type: functional;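 further: AlphaScreen bead proximity signal that flags compounds interfering with the detection technology; potency reflects signal decrease which marks the compound as an assay artifact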
[5] = target: T3, Latent membrane protein 1 (Human herpesvirus 4 (strain B95-8), UniProt P03230); assay: LMP1 TES1 pathway selectivity over dsRED control – imaging, HEK293T, dual-color eGFP/dsRED, cherry-picks, selectivity assay for LMP1 NF-kB inhibitor project, dose response (AID 588398); type: functional, cell-based
T3 sequence (P03230 whole entry): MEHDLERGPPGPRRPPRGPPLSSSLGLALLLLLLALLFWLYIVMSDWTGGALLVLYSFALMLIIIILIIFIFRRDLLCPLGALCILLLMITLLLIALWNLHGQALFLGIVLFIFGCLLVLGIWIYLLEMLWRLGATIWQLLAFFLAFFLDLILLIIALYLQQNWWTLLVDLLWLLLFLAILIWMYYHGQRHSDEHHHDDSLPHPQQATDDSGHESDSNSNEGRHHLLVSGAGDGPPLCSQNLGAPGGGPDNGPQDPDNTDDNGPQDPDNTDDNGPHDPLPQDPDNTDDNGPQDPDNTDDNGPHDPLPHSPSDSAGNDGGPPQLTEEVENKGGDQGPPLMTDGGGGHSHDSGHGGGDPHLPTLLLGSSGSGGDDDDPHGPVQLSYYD

[6] = target: T4, Mitochondrial peptide methionine sulfoxide reductase (Bos taurus, UniProt P54149); type: functional;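 further: absorbance read-out, biochemical high-throughput dose-response screen for MsrA inhibitors, confirmatory; recombinant bovine MsrA coupled to E. coli TrxB with NADPH and selenocystamine; potency is for inhibitors of MsrA activity on DMSO substrate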
T4 sequence (P54149 whole entry): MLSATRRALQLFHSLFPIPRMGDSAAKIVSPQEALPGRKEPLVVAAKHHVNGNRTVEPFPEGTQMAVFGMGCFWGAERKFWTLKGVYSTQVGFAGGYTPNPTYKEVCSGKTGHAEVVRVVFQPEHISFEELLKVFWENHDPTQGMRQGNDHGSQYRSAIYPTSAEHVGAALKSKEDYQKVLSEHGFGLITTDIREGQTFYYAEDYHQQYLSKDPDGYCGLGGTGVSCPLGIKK

HeLa = assay: ATP-based viability loss in HeLa cells – cell-based, CellTiter-Glo luminescence, cherry-pick samples, cytotoxicity control for MITF activator project, dose response (AID 540259); type: functional; conditions: Homo sapiens
[7] = target: Adenosylmethionine-8-amino-7-oxononanoate aminotransferase (Mycobacterium tuberculosis, UniProt P9WQ81); assay: Mycobacterium tuberculosis BioA enzyme inhibitor Measured in Biochemical System Using Plate Reader - 2163-02_Inhibitor_Dose_CherryPick_Activity.; type: functional, Mycobacterium tuberculosis UT205
Chain of Adenosylmethionine-8-amino-7-oxononanoate aminotransferase (P9WQ81 whole entry): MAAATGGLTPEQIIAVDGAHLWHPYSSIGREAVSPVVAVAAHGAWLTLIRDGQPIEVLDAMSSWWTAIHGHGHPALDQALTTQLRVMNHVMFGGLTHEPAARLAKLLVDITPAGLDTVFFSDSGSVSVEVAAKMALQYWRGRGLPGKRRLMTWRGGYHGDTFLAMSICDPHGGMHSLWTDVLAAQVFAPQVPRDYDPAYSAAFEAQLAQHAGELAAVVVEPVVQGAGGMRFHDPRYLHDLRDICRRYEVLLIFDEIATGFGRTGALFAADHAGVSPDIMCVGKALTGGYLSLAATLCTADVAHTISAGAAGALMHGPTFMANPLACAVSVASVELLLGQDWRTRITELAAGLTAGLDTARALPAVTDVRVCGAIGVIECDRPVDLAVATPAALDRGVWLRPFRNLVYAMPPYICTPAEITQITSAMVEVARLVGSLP

Beta-galactosidase = Beta-galactosidase (Escherichia coli, UniProt Q8VNN2); assay: PubChem AID 485352; type: functional
Chain of Beta-galactosidase (Q8VNN2 whole entry): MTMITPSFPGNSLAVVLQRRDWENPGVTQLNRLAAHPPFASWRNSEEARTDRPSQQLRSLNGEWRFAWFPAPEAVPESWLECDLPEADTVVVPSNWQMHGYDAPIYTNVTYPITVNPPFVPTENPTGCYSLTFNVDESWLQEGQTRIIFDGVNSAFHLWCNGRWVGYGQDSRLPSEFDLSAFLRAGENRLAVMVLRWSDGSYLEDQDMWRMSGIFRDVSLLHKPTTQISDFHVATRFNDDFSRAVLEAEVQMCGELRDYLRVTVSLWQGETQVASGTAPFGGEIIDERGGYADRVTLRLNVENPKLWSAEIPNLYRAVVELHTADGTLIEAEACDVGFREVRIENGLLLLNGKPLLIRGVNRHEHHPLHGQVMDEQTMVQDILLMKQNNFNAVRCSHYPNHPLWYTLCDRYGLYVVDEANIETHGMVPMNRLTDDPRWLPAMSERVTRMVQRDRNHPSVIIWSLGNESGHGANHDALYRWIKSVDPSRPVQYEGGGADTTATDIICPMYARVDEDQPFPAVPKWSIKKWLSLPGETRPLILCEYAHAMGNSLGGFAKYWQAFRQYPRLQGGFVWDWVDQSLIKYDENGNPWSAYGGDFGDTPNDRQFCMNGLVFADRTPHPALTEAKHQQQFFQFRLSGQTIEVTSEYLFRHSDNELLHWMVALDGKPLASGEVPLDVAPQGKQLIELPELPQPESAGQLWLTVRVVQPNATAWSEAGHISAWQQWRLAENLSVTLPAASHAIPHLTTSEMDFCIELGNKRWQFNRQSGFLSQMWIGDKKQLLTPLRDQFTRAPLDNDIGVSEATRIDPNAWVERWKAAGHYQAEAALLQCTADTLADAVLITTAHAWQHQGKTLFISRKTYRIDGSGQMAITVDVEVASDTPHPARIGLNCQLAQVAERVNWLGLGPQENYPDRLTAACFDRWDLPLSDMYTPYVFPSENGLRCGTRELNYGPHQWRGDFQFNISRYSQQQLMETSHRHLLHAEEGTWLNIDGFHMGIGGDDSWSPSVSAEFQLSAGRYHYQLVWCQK

[8] = target: T5, Type-1 angiotensin II receptor (Homo sapiens, UniProt P30556); assay: antagonism of angiotensin II type 1 receptor – cell-based, uHTS hits, selectivity assay for APJ receptor antagonist project, dose response (AID 463214); type: functional;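 further: antagonist potency against angiotensin II stimulated AT1 response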
T5 sequence (P30556 whole entry): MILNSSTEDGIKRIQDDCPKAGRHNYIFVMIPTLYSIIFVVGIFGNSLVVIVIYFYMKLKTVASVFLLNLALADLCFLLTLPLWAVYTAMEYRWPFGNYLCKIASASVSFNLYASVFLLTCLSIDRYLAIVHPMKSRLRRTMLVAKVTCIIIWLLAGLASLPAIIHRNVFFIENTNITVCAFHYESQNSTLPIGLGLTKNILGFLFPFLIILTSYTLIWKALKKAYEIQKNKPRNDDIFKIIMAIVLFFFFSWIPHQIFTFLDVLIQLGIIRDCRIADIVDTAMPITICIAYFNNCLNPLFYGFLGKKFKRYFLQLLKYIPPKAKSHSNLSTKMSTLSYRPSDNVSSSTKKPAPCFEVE

[9] = luciferase reporter signal suppression in cells – H4 neuroglioma cells, luminescence, dose response (AID 1990); type: functional, cell-based
[10] = Luminescence Cell-Based Dose Response HTS to Identify Inhibitors of 5'UTR Stem-Loop Driven Prion Protein mRNA Translation in H4 Neuroglioblastoma Cells. [Related pubchem assays: 1827 (Project Summary), 1813 (Primary HTS)]; type: functional
[11] = alpha-synuclein stem-loop luciferase translation blockers – H4 neuroglioma cells, luminescence, confirmation (AID 1988); type: functional, cell-based
Melanocortin receptor 4 = Melanocortin receptor 4 (Homo sapiens, UniProt P32245); assay: inhibitors of MC4R cAMP signaling – cell-based, TR-FRET, biased antagonists, dose response (AID 602298); type: functional;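 further: antagonist potency against agonist-stimulated cAMP production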
Chain of Melanocortin receptor 4 (P32245 whole entry): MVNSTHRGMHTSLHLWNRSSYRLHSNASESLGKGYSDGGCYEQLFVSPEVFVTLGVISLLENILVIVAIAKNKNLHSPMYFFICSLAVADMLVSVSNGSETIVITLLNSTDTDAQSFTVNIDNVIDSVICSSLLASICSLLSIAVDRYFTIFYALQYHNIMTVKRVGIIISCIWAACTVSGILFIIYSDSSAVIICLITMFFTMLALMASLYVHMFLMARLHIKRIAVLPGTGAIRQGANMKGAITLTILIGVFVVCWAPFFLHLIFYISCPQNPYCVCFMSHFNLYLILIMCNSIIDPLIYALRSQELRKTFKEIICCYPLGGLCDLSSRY

[12] = cAMP pathway inhibition in counterscreen cell line – TR-FRET cAMP detection, counter-screen for MC4R biased antagonist project, dose response (AID 602305); type: functional, cell-based;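 further: U2OS cells stimulated with forskolin near its EC80 as the cAMP inducer; potency is for inhibition of forskolin-stimulated cAMP signaling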
[13] = target: Luciferin 4-monooxygenase (Photinus pyralis, UniProt P08659); assay: inhibition of purified Photinus pyralis luciferase – biochemical, luminescence, dose response (AID 1891)
[14] = Luminescence Cell-Based Dose Confirmation HTS to Identify Inhibitors of Platelet Dense Granule Release. [Related pubchem assays: 1663 (Primary HTS), 1678 (Summary of Project)]; type: functional
[15] = target: SWI/SNF-related matrix-associated actin-dependent regulator of chromatin subfamily A member 2 (Homo sapiens, UniProt P51531); assay: Luminescence-based cell-based high throughput dose response assay to identify activators of the function of SWI/SNF related, matrix associated, actin dependent regulator of chromatin, subfamily a, member 2 (SMARCA2, BRM).; type: functional
Chain of SWI/SNF-related matrix-associated actin-dependent regulator of chromatin subfamily A member 2 (P51531 whole entry): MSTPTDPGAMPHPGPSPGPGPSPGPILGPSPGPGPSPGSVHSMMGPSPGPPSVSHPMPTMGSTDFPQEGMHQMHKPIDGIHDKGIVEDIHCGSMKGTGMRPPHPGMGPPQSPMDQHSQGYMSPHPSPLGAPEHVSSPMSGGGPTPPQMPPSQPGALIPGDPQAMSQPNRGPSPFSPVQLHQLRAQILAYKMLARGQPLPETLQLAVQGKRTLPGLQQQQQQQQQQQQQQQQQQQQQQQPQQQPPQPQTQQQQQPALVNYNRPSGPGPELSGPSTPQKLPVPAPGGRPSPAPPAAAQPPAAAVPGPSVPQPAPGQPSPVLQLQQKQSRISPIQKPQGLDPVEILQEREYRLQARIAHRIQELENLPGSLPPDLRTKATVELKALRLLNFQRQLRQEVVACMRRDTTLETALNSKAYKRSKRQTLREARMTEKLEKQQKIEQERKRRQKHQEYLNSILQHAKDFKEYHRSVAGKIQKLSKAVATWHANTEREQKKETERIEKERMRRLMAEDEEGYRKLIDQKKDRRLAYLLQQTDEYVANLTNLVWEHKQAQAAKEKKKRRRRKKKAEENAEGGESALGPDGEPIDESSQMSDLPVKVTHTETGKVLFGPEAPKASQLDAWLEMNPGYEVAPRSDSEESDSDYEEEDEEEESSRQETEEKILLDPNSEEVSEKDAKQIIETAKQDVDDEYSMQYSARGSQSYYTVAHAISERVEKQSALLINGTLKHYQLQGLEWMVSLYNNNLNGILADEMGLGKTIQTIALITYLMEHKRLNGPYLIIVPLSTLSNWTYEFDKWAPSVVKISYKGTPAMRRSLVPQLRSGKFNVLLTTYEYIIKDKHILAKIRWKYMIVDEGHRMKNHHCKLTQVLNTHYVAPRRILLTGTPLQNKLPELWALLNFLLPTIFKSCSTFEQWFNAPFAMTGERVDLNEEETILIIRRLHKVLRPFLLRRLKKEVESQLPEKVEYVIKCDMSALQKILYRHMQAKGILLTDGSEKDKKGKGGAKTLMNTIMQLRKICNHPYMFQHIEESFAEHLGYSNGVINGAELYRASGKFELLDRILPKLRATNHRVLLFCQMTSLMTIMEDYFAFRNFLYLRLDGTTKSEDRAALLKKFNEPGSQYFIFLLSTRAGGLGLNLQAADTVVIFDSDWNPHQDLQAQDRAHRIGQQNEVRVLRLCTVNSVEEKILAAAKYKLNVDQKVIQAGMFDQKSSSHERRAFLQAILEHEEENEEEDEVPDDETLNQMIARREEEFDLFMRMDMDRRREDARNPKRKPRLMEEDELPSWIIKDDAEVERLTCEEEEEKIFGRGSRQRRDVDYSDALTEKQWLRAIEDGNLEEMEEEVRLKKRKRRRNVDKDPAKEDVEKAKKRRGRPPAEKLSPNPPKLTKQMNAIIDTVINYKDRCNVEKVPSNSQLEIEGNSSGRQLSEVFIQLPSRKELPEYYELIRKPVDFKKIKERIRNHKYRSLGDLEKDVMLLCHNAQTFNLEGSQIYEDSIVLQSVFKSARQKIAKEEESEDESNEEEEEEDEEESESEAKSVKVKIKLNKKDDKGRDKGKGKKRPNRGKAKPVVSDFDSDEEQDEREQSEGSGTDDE

[16] = Counterscreen for activators of the function of SWI/SNF related, matrix associated, actin dependent regulator of chromatin, subfamily a, member 2 (SMARCA2, BRM): Luminescence-based cell-based high throughput dose response assay to identify non-selective compounds using the VP16 reporter assay.; type: functional
Protein Wnt-3a = Protein Wnt-3a (Mus musculus, UniProt P27467); assay: antagonism of Wnt3a pathway luciferase reporter – Wnt-LIGHT cells, luminescence, selectivity assay for Gli-SUFU antagonist project, dose response (AID 651570); type: functional; conditions: read-out: IC50_Mean;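 further: Wnt-LIGHT reporter cells stimulated with conditioned medium from Wnt3a-producing cells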
Chain of Protein Wnt-3a (P27467 whole entry): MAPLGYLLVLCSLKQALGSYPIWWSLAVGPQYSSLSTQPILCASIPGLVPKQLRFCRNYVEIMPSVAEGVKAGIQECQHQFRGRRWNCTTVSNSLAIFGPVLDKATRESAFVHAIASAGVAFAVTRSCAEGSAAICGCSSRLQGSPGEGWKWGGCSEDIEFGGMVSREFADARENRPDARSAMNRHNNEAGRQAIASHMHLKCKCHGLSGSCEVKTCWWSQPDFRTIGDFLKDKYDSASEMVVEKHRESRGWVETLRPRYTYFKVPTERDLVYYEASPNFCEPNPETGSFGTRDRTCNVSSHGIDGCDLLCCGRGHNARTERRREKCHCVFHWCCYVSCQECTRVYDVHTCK

[17] = Luminescence Cell-Based Dose Retest to Confirm Inhibitors of Cancer Stem Cells. [Related pubchem assays (depositor defined):AID2717, AID2721]; type: functional; conditions: Homo sapiens
[18] = target: Photoreceptor-specific nuclear receptor (Homo sapiens, UniProt Q9Y5X4); type: functional, cell-based;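 further: CHO-S cells with Gal4-NCOR and VP16-NR2E3 two-hybrid luciferase reporter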
Chain of Photoreceptor-specific nuclear receptor (Q9Y5X4 whole entry, the tested form may be a part): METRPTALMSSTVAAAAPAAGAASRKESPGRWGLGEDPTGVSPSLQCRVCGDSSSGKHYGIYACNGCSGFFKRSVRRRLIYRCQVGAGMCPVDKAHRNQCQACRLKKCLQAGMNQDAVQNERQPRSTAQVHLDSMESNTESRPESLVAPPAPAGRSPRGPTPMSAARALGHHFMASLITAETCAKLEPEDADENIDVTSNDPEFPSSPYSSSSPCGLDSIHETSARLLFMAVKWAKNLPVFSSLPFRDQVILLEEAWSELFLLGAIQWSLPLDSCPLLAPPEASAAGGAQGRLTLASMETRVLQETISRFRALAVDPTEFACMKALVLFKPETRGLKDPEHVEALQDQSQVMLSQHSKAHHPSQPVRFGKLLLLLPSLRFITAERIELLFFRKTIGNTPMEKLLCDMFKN

HEK293 = assay: EBV LMP1 TES2 canonical NF-kB signalling blockers – cell-based, HEK293, luciferase, cherry-pick, dose response (AID 588343); type: functional; conditions: Homo sapiens
Paired box protein Pax-8 = Paired box protein Pax-8 (Homo sapiens, UniProt Q06710); assay: PAX8 transcriptional activity inhibition in RMG-I – RMG-I cells, luciferase, cherry-pick, dose response (AID 687027); type: functional, cell-based;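 further: luciferase reporter driven by Pax8 target thyroperoxidase promoter measured by SteadyGlo luminescence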
Chain of Paired box protein Pax-8 (Q06710 whole entry): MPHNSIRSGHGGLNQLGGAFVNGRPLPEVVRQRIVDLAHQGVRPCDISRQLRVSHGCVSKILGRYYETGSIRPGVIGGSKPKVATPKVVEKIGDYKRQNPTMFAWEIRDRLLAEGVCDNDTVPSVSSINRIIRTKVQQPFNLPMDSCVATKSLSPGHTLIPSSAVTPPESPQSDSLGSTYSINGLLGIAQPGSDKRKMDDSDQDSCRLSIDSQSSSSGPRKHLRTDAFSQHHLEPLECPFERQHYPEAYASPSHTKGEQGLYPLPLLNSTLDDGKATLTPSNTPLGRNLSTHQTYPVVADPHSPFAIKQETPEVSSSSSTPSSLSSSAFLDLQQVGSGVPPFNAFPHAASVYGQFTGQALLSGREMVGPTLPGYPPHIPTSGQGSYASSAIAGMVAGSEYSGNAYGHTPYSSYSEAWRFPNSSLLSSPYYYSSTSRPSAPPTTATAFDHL

SMILES: COc1ccc(C(=O)ON=C2C=C(C)C(=O)C(C)=C2)cc1
- IC50 [1]: > 80 µM (inactive)
- IC50 (Coagulation factor XII): 0.574 µM (active)

SMILES: Oc1nncc2c3ccccc3n(Cc3cccc(Cl)c3)c12
- IC50 [2]: 4.55 µM (active)
- IC50 [3]: 4.44 µM (active)

SMILES: COc1cccc(C2c3[nH]c4ccccc4c3CCN2Cc2ncc[nH]2)c1 (centres undefined)
- AC50 [4]: 123 µM (active)

SMILES: Cn1cc(CC(=O)NCCCN2CCCC2)c2ccccc21
- AC50 [5]: 43.5 µM (active)

SMILES: Cc1ccc(C2=N/C(=C/N3CCOCC3)C(=O)O2)cc1
- IC50 [6]: 142 µM (inactive)

SMILES: Cc1ccc(NC(=O)Nc2ccc3c(c2)N(C)C(=O)CS3)nc1
- AC50 (HeLa): > 350 µM (inactive)

SMILES: Fc1ccc2nc(N3CCCC3)sc2c1
- AC50 (HeLa): 42.8 µM (active)

SMILES: Nn1c(SCc2nc3ccccc3[nH]2)nnc1-c1cccnc1
- AC50 [7]: 5.06 µM (active)

SMILES: O=C(Nc1ccccc1Cl)c1ccc2nccnc2c1
- AC50 (HeLa): 67.6 µM (active)

SMILES: COc1ccc(-c2cc(-c3ccccc3)nc(NN)n2)cc1OC
- EC50 (Beta-galactosidase): > 40 µM (inactive)
- IC50 [8]: 11.2 µM (active)

SMILES: Cc1ccc(C)c(NC(=O)COC(=O)c2cccc3c2C(=O)c2ccccc2C3=O)c1
- EC50 [9]: > 120 µM (not active)
- EC50 [10]: > 60 µM (not active)
- EC50 [11]: > 120 µM (not active)
- IC50 (Melanocortin receptor 4): > 64.6 µM (inactive)
- IC50 [12]: > 64.6 µM (inactive)

SMILES: Brc1ccc(N=Nc2ccc3ccccc3n2)cc1
- EC50 [9]: 0.107 µM (active)
- EC50 (Beta-galactosidase): > 40 µM (inactive)
- EC50 [11]: 0.125 µM (active)
- EC50 [13]: 0.299 µM (active)
- EC50 [14]: 0.969 µM (active)
- IC50 [8]: > 40 µM (not active)

SMILES: O=C(CNc1ccc(Br)cc1)c1ccc(Br)s1
- EC50 (Beta-galactosidase): > 40 µM (inactive)
- IC50 [8]: 14.7 µM (active)
- EC50 [15]: > 91.1 µM (inactive)
- EC50 [16]: > 91.1 µM (inactive)

SMILES: O=C(C[C@@H]1C/C=C\C[C@H](NC(=O)OCC2c3ccccc3-c3ccccc32)C(=O)OC[C@H]2CCCN2C1=O)N[C@H](CO)Cc1ccccc1
- IC50 (Protein Wnt-3a): 8.46 µM (active)

SMILES: CCCCC[C@@H]1C=C(C(=O)O)[C@H](c2ccc(Cl)c(Cl)c2)N1S(=O)(=O)c1ccc(C)cc1
- AC50 [17]: 4.58 µM (active)
- IC50 [18]: 4.88 µM (active)

SMILES: COc1ccc(NC(=O)c2ccc(-n3cncn3)c([N+](=O)[O-])c2)cc1OC
- AC50 [7]: 2.2 µM (active)

SMILES: COC(=O)c1c(NC(=O)C2COc3ccccc3O2)sc2c1CCN(C(=O)OC)C2 (centres undefined)
- IC50 (Melanocortin receptor 4): > 64.6 µM (inactive)
- IC50 [12]: > 64.6 µM (inactive)

SMILES: COc1ccc(NC(=O)N[C@@H]2CC[C@@H](CCn3cc(-c4ccccn4)nn3)O[C@H]2CO)cc1
- AC50 [4]: 82.2 µM (active)

SMILES: CCN(CC)c1ccc(C(NC(=O)C(C)C)c2ccc3cccnc3c2O)cc1 (centres undefined)
- AC50 (HEK293): 7.26 µM (active)
- AC50 [5]: 3.72 µM (active)
- AC50 (Paired box protein Pax-8): 1.09 µM (active)

SMILES: C[C@@H]1CN([C@H]2CC[C@](C#N)(c3ccc(F)cc3)CC2)CC[C@]1(C(=O)O)c1ccccc1 [LEVOCABASTINE HYDROCHLORIDE]
- AC50 [5]: 197 µM (active)
